pIC50: −log10 of the molar value.
System: pS6K1 in MCF7
Assay: AlphaLISA Ultra pS6K1 Assay
Type: cell-based
Conditions: Homo sapiens, 1.5 h; MCF7 cells, 90 min incubation
Description: Example 74: AlphaLISA Ultra pS6K1 Assay
Assay Protocol: • 1. Seed MCF-7 cells in Corning 3701 plate and incubate for 20˜24 hour. 12,000˜16,000 cells will be seeded in 36 μL medium per well. • 2. Change the culture medium with fresh medium and incubate for another 2 hours. • 3. Add 12 μL (4×) compounds into the cell plate by HAMILTON. Final DMSO concentration is 0.5%. Incubate for 90 minutes. • 4. Aspirate 38 μL by HAMILTON, 10 μL rest per well. • 5. Add 10 μL 2× lysis buffer using HAMILTON; total volume in wells is 20 μL. Allow cells to shake for 30 min. Cover plate by plastic foil and store plate at −80° C. up to analysis. • 6. Thaw cell lysate at RT and transfer 10 μL lysate to assay plate (Optiplate-384). • 7. Add 5 μL acceptor beads into assay plate and incubation for 2 hours • 8. Add 5 μL donor beads and incubation for 2 hours • 9. Count the plate by EnSpire Multimode Plate Reader

| Structure (SMILES) | pIC50 |
| --- | --- |
| CO[C@@H]1C[C@H](C[C@@H](C)[C@@H]2CC(=O)[C@H](C)/C=C(\C)[C@@H](O)[C@@H](OC)C(=O)[C@H](C)C[C@H](C)/C=C/C=C/C=C(\C)[C@H](OCCOc3ccccc3)C[C@@H]3CC[C@@H](C)[C@@](O)(O3)C(=O)C(=O)N3CCCC[C@H]3C(=O)O2)CC[C@H]1OCCO [Example I-6, (26E,28E,30E,31E,38R,39S,40R,41R,43S,45S,47R,48S,49R,50R,59R)-49,59-dihydroxy-48-[(1R)-2-[(1S,3R,4R)-4-(2-hydroxyethoxy)-3-methoxy-cyclohexyl]-1-methyl-ethyl]-50-methoxy-38,39,40,41,51,52-hexamethyl-47-(2-phenoxyethoxy)-69,70-dioxa-60-azatricyclohexatriaconta-26,28,30(51),31(52)-tetraene-53,54,55,56,57-pentone] | 8.00 to 9.00 |
| CO[C@@H]1C[C@H](C[C@@H](C)[C@@H]2CC(=O)[C@H](C)/C=C(\C)[C@@H](O)[C@@H](OC)C(=O)[C@H](C)C[C@H](C)/C=C/C=C/C=C(\C)C(OCC3CCCCC3)C[C@@H]3CC[C@@H](C)[C@@](O)(O3)C(=O)C(=O)N3CCCC[C@H]3C(=O)O2)CC[C@H]1OCCO (stereo partly drawn) [Example I-10, (26E,28E,30E,31E,36R,37S,38R,39R,42S,44S,47S,48R,49R,58R)-46-(cyclohexylmethoxy)-48,58-dihydroxy-47-[(1R)-2-[(1S,3R,4R)-4-(2-hydroxyethoxy)-3-methoxy-cyclohexyl]-1-methyl-ethyl]-49-methoxy-36,37,38,39,50,51-hexamethyl-68,69-dioxa-59-azatricyclohexatriaconta-26,28,30(50),31(51)-tetraene-52,53,54,55,56-pentone] | 8.00 to 9.00 |
| CO[C@@H]1C[C@H](C[C@@H](C)[C@@H]2CC(=O)[C@H](C)/C=C(\C)[C@@H](O)[C@@H](OC)C(=O)[C@H](C)C[C@H](C)/C=C/C=C/C=C(\C)C(OCC3CCCCO3)C[C@@H]3CC[C@@H](C)[C@@](O)(O3)C(=O)C(=O)N3CCCC[C@H]3C(=O)O2)CC[C@H]1OCCO (stereo partly drawn) [Example I-11, (25E,27E,29E,30E,35R,36S,37R,38R,40S,43S,46S,47R,48R,57R)-47,57-dihydroxy-46-[(1R)-2-[(1S,3R,4R)-4-(2-hydroxyethoxy)-3-methoxy-cyclohexyl]-1-methyl-ethyl]-48-methoxy-35,36,37,38,49,50-hexamethyl-45-(tetrahydropyran-2-ylmethoxy)-68,69-dioxa-58-azatricyclohexatriaconta-25,27,29(49),30(50)-tetraene-51,52,53,54,55-pentone] | > 10.00 |
| CO[C@@H]1C[C@H](C[C@@H](C)[C@@H]2CC(=O)[C@H](C)/C=C(\C)[C@@H](O)[C@@H](OC)C(=O)[C@H](C)C[C@H](C)/C=C/C=C/C=C(\C)C(OCCOc3ccccc3)C[C@@H]3CC[C@@H](C)[C@@](O)(O3)C(=O)C(=O)N3CCCC[C@H]3C(=O)O2)CC[C@H]1OCCO (stereo partly drawn) [Example I-12, (26E,28E,30E,31E,38R,39S,40R,41R,43S,45S,48S,49R,50R,59R)-49,59-dihydroxy-48-[(1R)-2-[(1S,3R,4R)-4-(2-hydroxyethoxy)-3-methoxy-cyclohexyl]-1-methyl-ethyl]-50-methoxy-38,39,40,41,51,52-hexamethyl-47-(2-phenoxyethoxy)-69,70-dioxa-60-azatricyclohexatriaconta-26,28,30(51),31(52)-tetraene-53,54,55,56,57-pentone] | 9.00 to 10.00 |
| COCCOc1ccc(C2C[C@@H]3CC[C@@H](C)[C@@](O)(O3)C(=O)C(=O)N3CCCC[C@H]3C(=O)O[C@H]([C@H](C)C[C@@H]3CC[C@@H](O)[C@H](OC)C3)CC(=O)[C@H](C)/C=C(\C)[C@H](O)[C@@H](OC)C(=O)[C@H](C)C[C@H](C)/C=C/C=C/C=C/2C)c(OC)c1 (stereo partly drawn) [Example I-24, (26E,28E,30E,31E,38R,39S,40R,41R,43S,45S,48S,49S,50R,59R)-49,59-dihydroxy-48-[(1R)-2-[(1S,3R,4R)-4-hydroxy-3-methoxy-cyclohexyl]-1-methyl-ethyl]-50-methoxy-46-[2-methoxy-4-(2-methoxyethoxy)phenyl]-38,39,40,41,51,52-hexamethyl-69,70-dioxa-60-azatricyclohexatriaconta-26,28,30(51),31(52)-tetraene-53,54,55,56,57-pentone] | 8.00 to 9.00 |
| COCCS(=O)(=O)CCOC1C[C@@H]2CC[C@@H](C)[C@@](O)(O2)C(=O)C(=O)N2CCCC[C@H]2C(=O)O[C@H]([C@H](C)C[C@@H]2CC[C@@H](O)[C@H](OC)C2)CC(=O)[C@H](C)/C=C(\C)[C@@H](O)[C@@H](OC)C(=O)[C@H](C)C[C@H](C)/C=C/C=C/C=C/1C (stereo partly drawn) [Example I-26, (22E,24E,26E,27E,33R,34S,35R,36R,38S,40S,43S,44R,45R,54R)-44,54-dihydroxy-43-[(1R)-2-[(1S,3R,4R)-4-hydroxy-3-methoxy-cyclohexyl]-1-methyl-ethyl]-45-methoxy-42-[2-(2-methoxyethylsulfonyl)ethoxy]-33,34,35,36,46,47-hexamethyl-66,67-dioxa-55-azatricyclohexatriaconta-22,24,26(46),27(47)-tetraene-48,49,50,51,52-pentone] | 9.00 to 10.00 |

Other lines, results leading:

| pIC50 | Structure (SMILES) |
| --- | --- |
| 8.00 to 9.00 | CO[C@@H]1C[C@H](C[C@@H](C)[C@@H]2CC(=O)[C@H](C)/C=C(\C)[C@@H](O)[C@@H](OC)C(=O)[C@H](C)C[C@H](C)/C=C/C=C/C=C(\C)[C@H](OCCOC3COC3)C[C@@H]3CC[C@@H](C)[C@@](O)(O3)C(=O)C(=O)N3CCCC[C@H]3C(=O)O2)CC[C@H]1OCCO [Example I-8, (23E,25E,27E,28E,34R,35S,36R,37R,39S,41S,43R,44S,46R,47R,56R)-46,56-dihydroxy-44-[(1R)-2-[(1S,3R,4R)-4-(2-hydroxyethoxy)-3-methoxy-cyclohexyl]-1-methyl-ethyl]-47-methoxy-34,35,36,37,48,49-hexamethyl-43-[2-(oxetan-3-yloxy)ethoxy]-67,68-dioxa-57-azatricyclohexatriaconta-23,25,27(48),28(49)-tetraene-50,51,52,53,54-pentone] |
| 8.00 to 9.00 | CO[C@@H]1C[C@H](C[C@@H](C)[C@@H]2CC(=O)[C@H](C)/C=C(\C)[C@@H](O)[C@@H](OC)C(=O)[C@H](C)C[C@H](C)/C=C/C=C/C=C(\C)C(OCCOC3CCOCC3)C[C@@H]3CC[C@@H](C)[C@@](O)(O3)C(=O)C(=O)N3CCCC[C@H]3C(=O)O2)CC[C@H]1OCCO (stereo partly drawn) [Example I-13, (25E,27E,29E,30E,36R,37S,38R,39R,42S,44S,47S,48R,49R,58R)-48,58-dihydroxy-47-[(1R)-2-[(1S,3R,4R)-4-(2-hydroxyethoxy)-3-methoxy-cyclohexyl]-1-methyl-ethyl]-49-methoxy-36,37,38,39,50,51-hexamethyl-46-(2-tetrahydropyran-4-yloxyethoxy)-69,70-dioxa-59-azatricyclohexatriaconta-25,27,29(50),30(51)-tetraene-52,53,54,55,56-pentone] |
| 9.00 to 10.00 | CO[C@@H]1C[C@H](C[C@@H](C)[C@@H]2CC(=O)[C@H](C)/C=C(\C)[C@@H](O)[C@@H](OC)C(=O)[C@H](C)C[C@H](C)/C=C/C=C/C=C(\C)C(OCCOC3COC3)C[C@@H]3CC[C@@H](C)[C@@](O)(O3)C(=O)C(=O)N3CCCC[C@H]3C(=O)O2)CC[C@H]1OCCO (stereo partly drawn) [Example I-14, (23E,25E,27E,28E,34R,35S,36R,37R,39S,41S,44S,46R,47R,56R)-46,56-dihydroxy-44-[(1R)-2-[(1S,3R,4R)-4-(2-hydroxyethoxy)-3-methoxy-cyclohexyl]-1-methyl-ethyl]-47-methoxy-34,35,36,37,48,49-hexamethyl-43-[2-(oxetan-3-yloxy)ethoxy]-67,68-dioxa-57-azatricyclohexatriaconta-23,25,27(48),28(49)-tetraene-50,51,52,53,54-pentone] |
| 9.00 to 10.00 | COCCS(=O)(=O)CCOC1C[C@@H]2CC[C@@H](C)[C@@](O)(O2)C(=O)C(=O)N2CCCC[C@H]2C(=O)O[C@H]([C@H](C)C[C@@H]2CC[C@@H](OCCO)[C@H](OC)C2)CC(=O)[C@H](C)/C=C(\C)[C@@H](O)[C@@H](OC)C(=O)[C@H](C)C[C@H](C)/C=C/C=C/C=C/1C (stereo partly drawn) [Example I-25, (22E,24E,26E,27E,35R,36S,37R,38R,40S,42S,45S,46R,47R,56R)-46,56-dihydroxy-45-[(1R)-2-[(1S,3R,4R)-4-(2-hydroxyethoxy)-3-methoxy-cyclohexyl]-1-methyl-ethyl]-47-methoxy-44-[2-(2-methoxyethylsulfonyl)ethoxy]-35,36,37,38,48,49-hexamethyl-68,69-dioxa-57-azatricyclohexatriaconta-22,24,26(48),27(49)-tetraene-50,51,52,53,54-pentone] |
| 7.00 to 8.00 | CO[C@@H]1C[C@H](C[C@@H](C)[C@@H]2CC(=O)[C@H](C)/C=C(\C)[C@@H](O)[C@@H](OC)C(=O)[C@H](C)C[C@H](C)/C=C/C=C/C=C(\C)[C@H](OCCCC(N)=O)C[C@@H]3CC[C@@H](C)[C@@](O)(O3)C(=O)C(=O)N3CCCC[C@H]3C(=O)O2)CC[C@H]1OCCO [Example I-28, 4-[[(21E,23E,25E,26E,33R,34S,35R,36R,38S,40S,42R,43S,44R,45R,55R)-44,55-dihydroxy-43-[(1R)-2-[(1S,3R,4R)-4-(2-hydroxyethoxy)-3-methoxy-cyclohexyl]-1-methyl-ethyl]-45-methoxy-33,34,35,36,46,47-hexamethyl-48,49,50,51,52-pentaoxo-67,68-dioxa-57-azatricyclohexatriaconta-21,23,25(46),26(47)-tetraen-42-yl]oxy]butanamide] |

Reference: patent US11819476B2, “Rapamycin analogs and uses thereof” (Janssen Pharmaceutica NV, priority 2019, dated 2023)
